This is an account of results in ChEMBL document CHEMBL1140954, “Syntheses and cytotoxicities of the analogues of the taxoid brevifoliol” (Eur J Med Chem, 2008).

The nature of series [1]: (§1) Cytotoxicity against human Caco-2 cells after 48 hrs by MTT assay. The class given is cell-based. As to conditions: human, Caco-2 cells.
In series [2] the test system is Caco-2. Described as §1. The series is classed as cell-based. The settings on record: Homo sapiens, Caco-2, 48 h.
Series [3] relates to MCF7. Description: Cytotoxicity against human MCF7 cells after 48 hrs by MTT assay. The series is classed as functional, cell-based. As to conditions: MCF7, 48 h.
The test system of series [4] is KB. Briefly: Cytotoxicity against human KB cells after 48 hrs by MTT assay. The class given is functional, cell-based.
Series [5] relates to HepG2. Description: Cytotoxicity against human HepG2 cells after 48 hrs by MTT assay. The series is classed as functional, cell-based. The settings on record: HepG2, 48 h.

≈ marks a conversion by molar mass, not a printed value.

Regarding `C=C1[C@@H](O)C[C@H](OC(C)=O)[C@@]2(C)[C@@H](OC(C)=O)[C@H](OC(=O)c3ccccc3)C3=C(C)C(=O)C[C@@]3(C(C)(C)O)[C@@H](OC(C)=O)[C@H]12` [13-OXO-TAXCHININ A], the IC90 at 48 h in series [1] was 100 mg/L (≈ 163 µM). In addition, the IC50 worked out at 100 mg/L (≈ 163 µM) in series [2], 100 mg/L (≈ 163 µM) in series [3], 100 mg/L (≈ 163 µM) in series [4] and 96.6 mg/L (≈ 158 µM) in series [5]. The IC90 in series [3], in series [4] and in series [5] was 100 mg/L (≈ 163 µM) each time.
Regarding `C=C1[C@H]2C[C@]3(C(C)(C)O)C[C@H](O)C(C)=C3[C@@H](OC(=O)c3ccccc3)[C@H](OC(C)=O)[C@]2(C)[C@@H](OC(C)=O)C[C@@H]1O` [BREVIFOLIOL], it took 1.32 mg/L (≈ 2.37 µM) to reach the 90% level in series [1] (IC90 at 48 h). Further, the IC50 in series [2] is 0.0025 mg/L (≈ 0.00449 µM); in series [3], 0.86 mg/L (≈ 1.54 µM); in series [4], 0.0031 mg/L (≈ 0.00557 µM); in series [5], 0.055 mg/L (≈ 0.0988 µM). Moreover, the IC90 was found to be 6.16 mg/L (≈ 11.1 µM) in series [3], 0.6 mg/L (≈ 1.08 µM) in series [4] and 1.13 mg/L (≈ 2.03 µM) in series [5].
`CC(=O)O[C@H]1C(=O)[C@@]2(C)[C@H]([C@H](OC(=O)c3ccccc3)[C@]3(O)C[C@H](OC(=O)[C@H](O)[C@@H](NC(=O)c4ccccc4)c4ccccc4)C(C)=C1C3(C)C)[C@]1(OC(C)=O)CO[C@@H]1C[C@@H]2O` [PACLITAXEL]: it took 0.065 mg/L (≈ 0.0761 µM) to reach the 90% level in series [1] (IC90 at 48 h). The concentration for an effect of 90% (IC90) in series [3] was 0.86 mg/L (≈ 1.01 µM); in series [4], 0.048 mg/L (≈ 0.0562 µM); in series [5], 1.13 mg/L (≈ 1.32 µM).
As to `C=C1[C@@H](OC(=O)[C@H](O)[C@@H](NC(=O)OC(C)(C)C)c2ccccc2)C[C@H](OC(C)=O)[C@]2(C)[C@@H]1C[C@]1(C(C)(C)O)C[C@H](O)C(C)=C1[C@@H](OC(=O)c1ccccc1)[C@@H]2OC(C)=O`, it took 100 mg/L (≈ 122 µM) to reach the 90% level in series [1] (IC90 at 48 h). In addition, the IC50 in series [2] amounted to 100 mg/L (≈ 122 µM); in series [3], 33.3 mg/L (≈ 40.6 µM); in series [4] it was 100 mg/L (≈ 122 µM); in series [5], 100 mg/L (≈ 122 µM). Besides, the results for the 90% effect concentration (IC90) in series [3], in series [4] and in series [5] were 55 mg/L (≈ 67.1 µM), 100 mg/L (≈ 122 µM) and 100 mg/L (≈ 122 µM), respectively.
With `C=C1[C@@H](OC(=O)[C@H](O)[C@@H](NC(=O)OC(C)(C)C)c2ccccc2)C[C@H](OC(C)=O)[C@]2(C)[C@@H]1C[C@]1(C(C)(C)O)C[C@H](OC(=O)C(O)C(NC(=O)OC(C)(C)C)c3ccccc3)C(C)=C1[C@@H](OC(=O)c1ccccc1)[C@@H]2OC(C)=O` (stereo partly specified), in series [1], the IC90 at 48 h came out at 100 mg/L (≈ 92.3 µM). The IC50 in series [2] worked out at 100 mg/L (≈ 92.3 µM); in series [3] it was 100 mg/L (≈ 92.3 µM); in series [4], 2.73 mg/L (≈ 2.52 µM); in series [5], 96.6 mg/L (≈ 89.2 µM). Further, the IC90 turned out to be 100 mg/L (≈ 92.3 µM) in series [3], 33.3 mg/L (≈ 30.7 µM) in series [4] and 100 mg/L (≈ 92.3 µM) in series [5].
`C=C1[C@@H](OC(=O)[C@H](O)[C@@H](NC(=O)OC(C)(C)C)c2ccccc2)C[C@H](OC(C)=O)[C@@]2(C)[C@@H](OC(C)=O)[C@H](OC(=O)c3ccccc3)C3=C(C)C(=O)C[C@@]3(C(C)(C)O)[C@@H](OC(C)=O)[C@H]12` displayed an IC90 at 48 h in series [1] of 100 mg/L (≈ 114 µM). Moreover, the IC50 in series [2] was 100 mg/L (≈ 114 µM); in series [3], 100 mg/L (≈ 114 µM); in series [4], 0.105 mg/L (≈ 0.12 µM); in series [5], 100 mg/L (≈ 114 µM). The IC90 in series [3] amounted to 100 mg/L (≈ 114 µM); in series [4], 5.33 mg/L (≈ 6.08 µM); in series [5] it was 100 mg/L (≈ 114 µM).
For `C=C1[C@H]2C[C@]3(C(C)(C)O)C[C@H](OC(=O)[C@H](O)[C@@H](NC(=O)OC(C)(C)C)c4ccccc4)C(C)=C3[C@@H](OC(=O)c3ccccc3)[C@H](OC(C)=O)[C@]2(C)[C@@H](OC(C)=O)C[C@@H]1O`, the 90% effect level in series [1] (IC90 at 48 h) was put at 100 mg/L (≈ 122 µM). Besides, the IC50 is 100 mg/L (≈ 122 µM) in series [2], 48.3 mg/L (≈ 58.9 µM) in series [3], 100 mg/L (≈ 122 µM) in series [4] and 78.3 mg/L (≈ 95.5 µM) in series [5]. In addition, the figures for the IC90 in series [3], in series [4] and in series [5] were 68.3 mg/L (≈ 83.3 µM), 100 mg/L (≈ 122 µM) and 91.6 mg/L (≈ 112 µM), respectively.
In series [1], `C=C1[C@@H](OC(=O)[C@H](O)[C@@H](NC(=O)OC(C)(C)C)c2ccccc2)C[C@H](OC(C)=O)[C@]2(C)[C@@H]1C[C@]1(C(C)(C)O)CC(=O)C(C)=C1[C@@H](OC(=O)c1ccccc1)[C@@H]2OC(C)=O` displayed an IC90 at 48 h of 100 mg/L (≈ 122 µM). The IC50 in series [2] came out at 100 mg/L (≈ 122 µM); in series [3] it was 8.5 mg/L (≈ 10.4 µM); in series [4] it was 100 mg/L (≈ 122 µM); in series [5], 0.065 mg/L (≈ 0.0795 µM). Moreover, the IC90 is 43.3 mg/L (≈ 53 µM) in series [3], 100 mg/L (≈ 122 µM) in series [4] and 5.33 mg/L (≈ 6.52 µM) in series [5].
`C=C1[C@H]2C[C@]3(C(C)(C)O)CC(=O)C(C)=C3[C@@H](OC(=O)c3ccccc3)[C@H](OC(C)=O)[C@]2(C)[C@@H](OC(C)=O)C[C@@H]1O` yielded an IC90 at 48 h in series [1] of 21 mg/L (≈ 37.9 µM). Besides, the IC50 came out at 0.008 mg/L (≈ 0.0144 µM) in series [2], 5.33 mg/L (≈ 9.61 µM) in series [3], 0.0078 mg/L (≈ 0.0141 µM) in series [4] and 100 mg/L (≈ 180 µM) in series [5]. For the same compound, the values for the IC90 in series [3], in series [4] and in series [5] were 22.6 mg/L (≈ 40.7 µM), 1.13 mg/L (≈ 2.04 µM) and 100 mg/L (≈ 180 µM), respectively.
In turn, `C=C1[C@@H](O)C[C@H](OC(C)=O)[C@@]2(C)[C@@H](OC(C)=O)[C@H](OC(=O)c3ccccc3)C3=C(C)[C@@H](O)C[C@@]3(C(C)(C)O)[C@@H](OC(C)=O)[C@H]12` [TAXCHININ A] returned an IC90 at 48 h in series [1] of 21 mg/L (≈ 34.2 µM). In addition, the IC50 is 6.16 mg/L (≈ 10 µM) in series [2], 58.3 mg/L (≈ 94.8 µM) in series [3], 0.316 mg/L (≈ 0.514 µM) in series [4] and 96.6 mg/L (≈ 157 µM) in series [5]. The results for the IC90 in series [3], in series [4] and in series [5] were 91.6 mg/L (≈ 149 µM), 7.5 mg/L (≈ 12.2 µM) and 100 mg/L (≈ 163 µM), respectively.
